Laboratory results reported in patent publication US4948807A, “Phenyl carbamates” (priority 1985, dated 1990).
Like-named read-outs stand apart in the source and are kept apart here.

Experiments:
in vivo = details: for absorption from the gastro-intestinal tract compared with physostigmine: from oral versus s.c. LD50; for protection by atropine against lethality: atropine pretreatment; for selectivity ratio / LD50 at 3 h: mouse, in vivo
Method: Mice were given one of at least three different doses of each compound, orally or subcutaneously, a minimum of 10 mice allotted to each dose. The number of animals which died at each dose within 3 hours was determined.
This experiment was repeated after the animals had been pretreated with atropine sulphate, which blocks both peripheral and central muscarinic receptors.
What is important is the safety of the drugs and the presence and severity of side effects that may occur at therapeutic doses. A commonly-used measure of drug safety is the therapeutic index--or LD50 /ED50 [formula]
It is assumed that the therapeutic effect of these anticholinesterase agents results from an elevation of brain cholinergic activity. This in turn, should be related to the degree of inhibition of acetylcholinesterase. For the purpose of the computation of the denominator of the therapeutic ratio, there is used the dose of drug that inhibits the activity of acetylcholinesterase by 50%. […] The numerator is the dose found to kill 50% of the animals within […] of a subcutaneous injection.

[1] = test system: brain acetylcholinesterase; details: for Relative potency to physostigmine after oral administration / % cholinesterase inhibition 3 hours after s.c. administration / Relative potency to physostigmine after subcut. (s.c.) administration: mouse brain; for Relative potency to physostigmine after oral administration / Relative potency to physostigmine after subcut. (s.c.) administration: physostigmine = 100; for relative in vivo activity compared to physostigmine versus in vitro data: comparison of Table 1 with Table 2
Method: The effect of each compound on brain acetylcholinesterase in vivo was measured, after subcutaneous or oral administration to mice. Animals were sacrificed, at different times ranging from 0.25-8 hours after drug administration. The brain was rapidly removed, and the enzyme acetylcholinesterase extracted and solubilized with 0.1% Triton, and its ability to hydrolyse acetylthiocholine assessed as described above (in vitro experiments), in comparison with the enzyme removed from mice injected with normal saline.

acetylcholinesterase = molecular target: T1, acetylcholinesterase (Mus musculus, UniProt P21836); test: biochemical; type: biochemical
T1 construct: A solubilized preparation of acetylcholinesterase was prepared from mouse whole brain (minus cerebellum); from tissue; host or cells: mouse whole brain (minus cerebellum), membrane pellet solubilized with 1% Triton
T1 sequence (P21836 32-614): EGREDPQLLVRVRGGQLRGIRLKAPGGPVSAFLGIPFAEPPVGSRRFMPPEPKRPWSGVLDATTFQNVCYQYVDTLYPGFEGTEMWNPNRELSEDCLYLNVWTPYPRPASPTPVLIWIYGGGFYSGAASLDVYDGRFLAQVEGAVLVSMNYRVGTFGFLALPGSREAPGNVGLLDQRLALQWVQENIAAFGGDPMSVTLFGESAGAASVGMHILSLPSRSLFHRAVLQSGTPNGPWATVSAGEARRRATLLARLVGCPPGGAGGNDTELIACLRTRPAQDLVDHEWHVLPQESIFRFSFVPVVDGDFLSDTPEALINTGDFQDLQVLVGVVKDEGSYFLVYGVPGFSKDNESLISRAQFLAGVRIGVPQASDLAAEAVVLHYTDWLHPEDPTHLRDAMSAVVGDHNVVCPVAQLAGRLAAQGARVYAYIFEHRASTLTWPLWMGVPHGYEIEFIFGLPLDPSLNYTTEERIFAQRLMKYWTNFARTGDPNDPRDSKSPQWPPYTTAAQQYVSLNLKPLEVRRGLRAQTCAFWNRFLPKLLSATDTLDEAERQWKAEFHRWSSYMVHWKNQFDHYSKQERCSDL
Method: A solubilized preparation of acetylcholinesterase was prepared from mouse whole brain (minus cerebellum). The brain was homogenized with (100 mg/ml) phosphate buffer; pH 8.0, centrifuged, the supernatant discarded, and the pellet mixed with a similar volume as above of buffer pH 8.0 plus 1% Triton; mixed, centrifuged and the supernatant which contained most of the solubilized enzyme, was used for the subsequent determinations of anticholinesterase activity.
The activity of the enzyme (rate of hydrolysis of substrate, acetylthiocholine) was measured using at least 4 different concentrations of substrate, and at least 3 different concentrations of each inhibitor. The enzyme was incubated with inhibitor for periods ranging for 2-180 mins. at 37° C., substrate was then added, and its rate of hydrolysis measured by the spectrophotometric method of Ellman et al. (1961).

[2] = test system: respiratory depressant effects of morphine; type: in vivo; details: rabbits, depending on drug and dose
Method: Different doses of the carbamate compounds were injected intravenously with morphine in rabbits Respiration rate, arterial blood gas tensions and pH were monitored continuously before and after drug administration for 4-5 hours. In another series of experiments the effect of the anticholinesterase drugs was assessed on the analgesic effect of opiates in rabbits after application of a nociceptive stimulus, i.e. electrical stimulation of the sciatic nerve.

[3] = Degree of protection afforded by pretreatment with atropine, ratio of LD50 after pretreatment with atropine sulphate 5 mg/kg to LD50 of drug alone
[4] = Ratio whose head is drawing 10 (Table 3; oral LD50 compared with s.c. LD50), mice, oral versus s.c.
[5] = sc, Therapeutic ratio LD50/ED50 s.c., mice, ED50 = dose inhibiting brain acetylcholinesterase by 50%
[6] = parenteral administration, in words
[7] = incubation of enzyme with inhibitor, 37° C.

Row | SMILES | absorption from the gastro-intestinal tract compared with physostigmine (in vivo) | protection by atropine against lethality (in vivo; mice, in words) | selectivity ratio (in vivo; [3]) | selectivity ratio (in vivo; [4]) | LD50 at 3 h (in vivo; sc) [µmol/kg] | selectivity ratio (in vivo; [5]) | duration of significant brain enzyme inhibition (>30%) ([1]; at ED50 dose) | Relative potency to physostigmine after oral administration [1] | % cholinesterase inhibition 3 hours after s.c. administration [1] [%] | Relative potency to physostigmine after subcut. (s.c.) administration [1] | duration of brain acetylcholinesterase inhibition compared with physostigmine or miotine [1, 6] | IC50 (acetylcholinesterase) [nM] | Time of peak activity (acetylcholinesterase; [7]) [min] | relative in vivo activity compared to physostigmine versus in vitro data [1] | duration of significant antagonism of the respiratory depressant effects of morphine [2] [h] | other results
1 | CCCN(C)C(=O)Oc1cccc(C(C)N(C)C)c1 (stereo not drawn) [RA4, N-methyl, N-propyl-3[1-(dimethylamino)ethyl]phenyl carbamate] | more efficiently absorbed from the gastro-intestinal tract than is physostigmine | considerably greater protection | 4.9 | 1.7 | 72 | 10 | more than 3 hours | 29 | 25 | 13 | significantly longer duration | 1700 | 60 |  |  | bioavailability after oral administration compared with physostigmine ([1]; in words): better bioavailability after oral administration than physostigmine
2 | CCCCNC(=O)Oc1cccc(C(C)N(C)C)c1 (stereo not drawn) [RA5, N-butyl-3-[1-(dimethylamino)ethyl]phenyl carbamate] |  | considerably greater protection | 5.8 | 5 | 19 | 7.6 | more than 3 hours | 29 | 30 | 36 | significantly longer duration | 76 | 120 | relatively more active in vivo compared to physostigmine than one would expect from the in vitro data |  | 
3 | CCNC(=O)Oc1cccc(C(C)N(C)C)c1 (stereo not drawn) [RA6, N-ethyl-3[1-(dimethylamino)ethyl]phenyl carbamate] | more efficiently absorbed from the gastro-intestinal tract than is physostigmine |  | 2.6 | 2.1 | 96 | 11.9 | more than 3 hours | 19 | 35 | 11 | significantly longer duration | 400 | 120 | relatively more active in vivo compared to physostigmine than one would expect from the in vitro data | 3 to 5 | brain enzyme inhibition after 7 hours ([1]; at ED50 dose, 7 hours): 36%; bioavailability after oral administration compared with physostigmine ([1]; in words): better bioavailability after oral administration than physostigmine
4 | CCN(C)C(=O)Oc1cccc(C(C)N(C)C)c1 (stereo not drawn) [RA7, N-ethyl, N-methyl-3[1-(dimethylamino)ethyl]phenyl carbamate] | more efficiently absorbed from the gastro-intestinal tract than is physostigmine | considerably greater protection |  |  | 46 |  |  |  |  |  |  |  |  |  |  | brain enzyme inhibition after 7 hours ([1]; mouse, in vivo): 36%; duration of brain acetylcholinesterase inhibition compared with physostigmine or miotine ([1]; mouse, in vivo): significantly longer duration; duration of significant brain enzyme inhibition (>30%) ([1]; mouse, in vivo): more than 3 hours; Time of peak activity (acetylcholinesterase): 90 min
5 | CCN(CC)C(=O)Oc1cccc(C(C)N(C)C)c1 (stereo not drawn) [RA8, N,N-diethyl-3-[1-(dimethylamino)ethyl]phenyl carbamate] |  |  |  |  | > 568 | > 10 | more than 3 hours | 5 | 32 | 2 | significantly longer duration | 35000 | 30 | relatively more active in vivo compared to physostigmine than one would expect from the in vitro data |  | ED50 after oral administration compared with S.C. injection ([1]; oral versus s.c.): the same as that after S.C. injection
6 | CC(c1cccc(OC(=O)N(C)C)c1)N(C)C (stereo not drawn) [RA10] |  | considerably greater protection | 5 | 9.7 | 14 | 12.7 |  | 92 | 7 | 81 |  | 27 | 120 | relatively more active in vivo compared to physostigmine than one would expect from the in vitro data | 3 to 5 | therapeutic ratio (safety margin) compared with physostigmine (in vivo; mice, s.c., in words): significantly higher than of physostigmine
7 | CC(c1cccc(OC(=O)N2CCOCC2)c1)N(C)C (stereo not drawn) [RA11] |  |  |  |  |  |  |  |  |  |  |  | > 20000 | 30 |  |  | 
8 | CC(c1cccc(OC(=O)NC2CCCCC2)c1)N(C)C (stereo not drawn) [RA12] |  |  | 3.8 | 3.6 | 42 | 5.8 | more than 3 hours | 17 | 37 | 13 |  | 93 | 120 |  |  | 
9 | CC(C)NC(=O)Oc1cccc(C(C)N(C)C)c1 (stereo not drawn) [RA13] | more efficiently absorbed from the gastro-intestinal tract than is physostigmine | considerably greater protection | 4.5 | 1.1 | 65 | 1.6 |  | 5 |  | 2 |  | 12000 | 120 |  |  | 
10 | C=CCNC(=O)Oc1cccc(C(C)N(C)C)c1 (stereo not drawn) [RA14, N-allyl-3-[1-(dimethylamino)ethyl]phenyl carbamate] |  | considerably greater protection | 8 | 4.4 | 69 | 11.5 | more than 3 hours | 22 | 35 | 15 | significantly longer duration | 430 | 120 | relatively more active in vivo compared to physostigmine than one would expect from the in vitro data | 3 to 5 | selectivity ratio (in vivo; decrease of acute toxicity (lethality) by the antidote atropine, mice, atropine): > 8
